Test [1] has as its system PC3/PSC27 tumors. Description: Preclinical treatment trial, PC3/PSC27 xenograft tumor volume. It is filed as in vivo, mice.
Test [2] has as its system PC3-only tumors. Description: Preclinical treatment trial, PC3-only tumor volume. The format is in vivo, mice. The note with it: single agents; absence of stromal cells.
Procedure: All experimental mouse experiments were performed strictly following the relevant regulations of the experimental animals. Immuno-deficient mice(NOD-SCID mice, ICR) (body weight about 25 g) aged 6-8 weeks were used for animal experiments related to the present patent. Stromal cells PSC27 and epithelial cells PC3 were mixed at a predetermined ratio of 1:4, and each graft contained 1.25×10^6 cells for tissue remodeling. The xenograft tumors were implanted into mice by subcutaneous transplantation, and the animals were euthanized 8 weeks after the end of the transplantation surgery. Tumor volume was calculated according to the following formula: V=(π/6)×((1+w)/2)^3 (V, volume; 1, length; w, width). In a preclinical treatment trial, subcutaneously transplanted mice were fed with a standard experimental diet, after 2 weeks chemotherapy drugs mitoxantrone (MIT, dose: 0.2 mg/kg) and/or Rutin (500 μl, dose: 10 mg/kg), Rapamycin (500 μl, dose: 10 mg/kg) via intraperitoneal administration. The time points are as follows: all three drugs were administered to mice on the first day of the third, fifth and seventh weeks. A total of 3 cycles of administration was carried out throughout the course of treatment, and each cycle lasted for 2 weeks. After the course of treatment, mouse tumors were harvested for volume measurement and histological analysis. […] The chemotherapy experiment ended at the end of the 8th week, and the mice were dissected immediately after sacrifice, and the xenograft tumors were collected and used for pathological system analysis.
Test [3] has as its system SASP factors, p16^INK4a, p21^CIP1. Nature of the test: qRT-PCR of SASP factors and senescence markers in tumor-bearing sites. It is filed as in vivo, mice. For orientation: Quantitative PCR measures a nucleic acid by following its amplification.
Source text: Varying expression levels of transcripts between the groups of a set of typical SASP molecules in tumor-bearing sites of mice according to the detection and analysis of fluorescent quantitative PCR (qRT-PCR). Data in each group is normalized for the sample with the lowest expression value within the group. IL6, IL8, AREG and ILla are included. […] Varying expression levels of transcripts between the groups of another set of typical SASP molecules in tumor-bearing sites of mice according to the detection and analysis of fluorescent quantitative PCR (qRT-PCR). Data in each group is normalized for the sample with the lowest expression value within the group. MMP1, MMP3, ANGPTL4 and SPINK1 are included. […] Varying expression levels of transcripts between the groups of a set of cellular senescence-specific biomarkers in tumor-bearing sites of mice according to the detection and analysis of fluorescent quantitative PCR (qRT-PCR). […] After the reaction was completed, the amplification of each gene was checked by software analysis, the corresponding threshold cycle number was derived, and the relative expression of each gene was calculated using the 2-ΔΔCt method. The peak and waveform of the melting curve was analyzed to determine whether the obtained amplification product was a specific single target fragment.
Test [4] has as its system PC3/PSC27 tumors. Description: SA-β-Gal staining of PC3/PSC27 tumor tissue. It is filed as in vivo, mice. The following applies: PC3/PSC27 tumor lesions.
Procedure: Comparison of cell senescence in PC3/PSC27 tumor-bearing animal lesions in preclinical experiments. Representative pictures after SA-β-Gal staining. […] Senescence-associated β-galactosidase (SA-β-Gal) staining was performed following a previously reported procedure (Debacq-Chainiaux et al., 2009). Briefly, cells in culture dishes were washed with PBS and fixed at room temperature. Cells were fixed in 2% formaldehyde and 0.2% glutaraldehyde for 3 minutes. SA-β-Gal was used for staining with freshly prepared staining solution overnight at 37° C. Images were taken on the next day and the percentage of positive cells per unit area was calculated.
The subject of test [5] is PC3/PSC27 xenografts. Description: DNA damage and apoptosis of cancer cells in PC3/PSC27 xenografts. It is filed as in vivo, mice. The following applies: tumors dissected 7 days after initiation of treatment.
In test [6] the test system is AREG. Description: ELISA of circulating serum SASP proteins. The format is in vivo, mice. The following applies: mouse serum. (In an ELISA, binding on a coated surface is turned into a signal by an enzyme label.)
Procedure: (§1) FIG. 41. Circulating serum proteins of SASP typical factors in mice were examined using ELISA. Left, AREG. Right, EREG. […] The time points are as follows: all three drugs were administered to mice on the first day of the third, fifth and seventh weeks. A total of 3 cycles of administration was carried out throughout the course of treatment, and each cycle lasted for 2 weeks. After the course of treatment, mouse tumors were harvested for volume measurement and histological analysis. […] The chemotherapy experiment ended at the end of the 8th week, and the mice were dissected immediately after sacrifice, and the xenograft tumors were collected and used for pathological system analysis. […] For alternative chemotherapeutics, vincristine or vinblastine (dose: 1.0 mg/kg) is administered intraperitoneally.
Test [7] concerns EREG. Description: ELISA of circulating serum SASP proteins. The following applies: mouse serum. The format is in vivo, mice.
Procedure: as §1
In test [8] the test system is MDA-MB-231/HBF1203 tumors. Description: Breast cancer xenograft treatment trial. It is filed as in vivo, mice. The note with it: end of 8th week.
For test [9], the system named is PSC27 cells. Description: SA-β-Gal staining of PSC27 cells. The note with it: BLEO 50 μg/ml induces senescence, rutin tested on proliferating and BLEO-induced senescent cells. It is filed as cell-based, human.
The subject of test [10] is PSC27 cells. Nature of the test: BrdU incorporation of PSC27 cells. The format is cell-based, human. The following applies: BLEO 50 μg/ml induces senescence, rutin tested on proliferating and BLEO-induced senescent cells. For orientation: Incorporation of labelled thymidine or its analogues reports DNA synthesis.
In test [11] the test system is IL8 (interleukin 8). Description: NMA library screen: expression of SASP factor IL8 in PSC27 cells. It is filed as cell-based, human. The note with it: senescent PSC27 cells.
In test [12] the test system is SASP factors. Description: qRT-PCR of typical SASP factors in BLEO-induced senescent PSC27 cells. It is filed as cell-based, human. The note with it: IL6, IL8, IL1a, IL1β, CXCL3, MMP3, GM-CSF, 20-100 μM tested.
For test [13], the system named is PSC27 cells. Description: RNA-seq / GSEA of PSC27 cells. It is filed as cell-based, human. On the procedure: Whole-transcriptome sequencing was performed on the primary human prostate stromal cell line PSC27 under different treatment conditions. Total RNA samples were obtained from stromal cells. Their integrity was verified by Bioanalyzer 2100 (Agilent), RNA was sequenced by Illumina HiSeq X10, and gene expression levels were quantified by software package […]/). Briefly, rRNA was depleted from RNA samples with the RiboMinus Eukaryote Kit (Qiagen, Valencia, CA, USA); and according to the manufacturer's instructions, TruSeq Stranded Total RNA Preparation Kits (Illumina, San Diego, CA, USA) was used to construct a strand-specific RNA-seq library before deep sequencing. Paired-end transcriptomic reads were mapped to a reference genome (GRCh38/hg38), and reference-annotation was performed from Gencode v27 using the Bowtie tool. Duplicate reads were identified using the picard Tools (1.98) script to mark duplicates (https://github.com/broadinstitute/picard), and only non-duplicate reads were retained. Reference splice junctions were provided by reference transcriptome (Ensembl Build 73). FPKM values were calculated with Cufflinks, and Cufflinks maximum likelihood estimation function was used to call differential gene expression. […] Next, Trim Galore (v0.3.0) (http://www.bioinformatics.babraham.ac.uk/projects/trim_galore/) was used to trim the reads, while the quality assessment was carried out by using FastQC (v0.10.0) (http://www.bioinformatics.bbsrc.ac.uk/projects/fastqc/). Subsequently, DAVID bioinformatics platform ( ) and ingenuity Pathways Analysis (IPA) program (http://www.ingenuity.com/index.html) were used. A preliminary analysis of the raw data was performed on a free online platform, Majorbio I-Sanger Cloud Platform (www.i-sanger.com) and the raw data were deposited in the NCBI Gene Expression Omnibus (GEO) database with access code GSE156448. Based on the data obtained from the preliminary analysis of RNA-seq, after analyzing and comparing each differentially expressed significant gene, the genes were sorted using the “wald statistics” obtained from DESeq2. GSEA was performed on the sorting lists of all planning gene sets available in MSigDB (http://software.broadinstitute.org/gsea/msigdb). DESeq2 independent filtering was based on the average of normalized read counts to select genes with very low expression levels. The SASP and GSEA signature were as described in our previous publication (Zhang et al., 2018a).

In test [14] the test system is ATM, TAK1, p38MAPK, PI3K/Akt/mTOR, IL8. Nature of the test: Immunoblot of DDR pathways and SASP expression in PSC27 cells. It is filed as cell-based, human. The following applies: for ATM activation / phosphorylation: BLEO-induced senescence, with or without rutin.
Test [15] deals with TRAF6-TAK1 interaction. Description: p-TAK1-mediated IP and immunoblot in PSC27 cells. The format is cell-based, human. The following applies: BLEO and/or rutin.
In test [16] the target is ATM and TRAF6 interaction (Homo sapiens, UniProt Q13315+Q9Y4K3). Nature of the test: p-ATM-mediated IP and immunoblot in PSC27 cells. The format is cell-based. The note with it: BLEO and/or rutin.
ATM and TRAF6 interaction, sequence (Q13315 2-3056 limits assumed): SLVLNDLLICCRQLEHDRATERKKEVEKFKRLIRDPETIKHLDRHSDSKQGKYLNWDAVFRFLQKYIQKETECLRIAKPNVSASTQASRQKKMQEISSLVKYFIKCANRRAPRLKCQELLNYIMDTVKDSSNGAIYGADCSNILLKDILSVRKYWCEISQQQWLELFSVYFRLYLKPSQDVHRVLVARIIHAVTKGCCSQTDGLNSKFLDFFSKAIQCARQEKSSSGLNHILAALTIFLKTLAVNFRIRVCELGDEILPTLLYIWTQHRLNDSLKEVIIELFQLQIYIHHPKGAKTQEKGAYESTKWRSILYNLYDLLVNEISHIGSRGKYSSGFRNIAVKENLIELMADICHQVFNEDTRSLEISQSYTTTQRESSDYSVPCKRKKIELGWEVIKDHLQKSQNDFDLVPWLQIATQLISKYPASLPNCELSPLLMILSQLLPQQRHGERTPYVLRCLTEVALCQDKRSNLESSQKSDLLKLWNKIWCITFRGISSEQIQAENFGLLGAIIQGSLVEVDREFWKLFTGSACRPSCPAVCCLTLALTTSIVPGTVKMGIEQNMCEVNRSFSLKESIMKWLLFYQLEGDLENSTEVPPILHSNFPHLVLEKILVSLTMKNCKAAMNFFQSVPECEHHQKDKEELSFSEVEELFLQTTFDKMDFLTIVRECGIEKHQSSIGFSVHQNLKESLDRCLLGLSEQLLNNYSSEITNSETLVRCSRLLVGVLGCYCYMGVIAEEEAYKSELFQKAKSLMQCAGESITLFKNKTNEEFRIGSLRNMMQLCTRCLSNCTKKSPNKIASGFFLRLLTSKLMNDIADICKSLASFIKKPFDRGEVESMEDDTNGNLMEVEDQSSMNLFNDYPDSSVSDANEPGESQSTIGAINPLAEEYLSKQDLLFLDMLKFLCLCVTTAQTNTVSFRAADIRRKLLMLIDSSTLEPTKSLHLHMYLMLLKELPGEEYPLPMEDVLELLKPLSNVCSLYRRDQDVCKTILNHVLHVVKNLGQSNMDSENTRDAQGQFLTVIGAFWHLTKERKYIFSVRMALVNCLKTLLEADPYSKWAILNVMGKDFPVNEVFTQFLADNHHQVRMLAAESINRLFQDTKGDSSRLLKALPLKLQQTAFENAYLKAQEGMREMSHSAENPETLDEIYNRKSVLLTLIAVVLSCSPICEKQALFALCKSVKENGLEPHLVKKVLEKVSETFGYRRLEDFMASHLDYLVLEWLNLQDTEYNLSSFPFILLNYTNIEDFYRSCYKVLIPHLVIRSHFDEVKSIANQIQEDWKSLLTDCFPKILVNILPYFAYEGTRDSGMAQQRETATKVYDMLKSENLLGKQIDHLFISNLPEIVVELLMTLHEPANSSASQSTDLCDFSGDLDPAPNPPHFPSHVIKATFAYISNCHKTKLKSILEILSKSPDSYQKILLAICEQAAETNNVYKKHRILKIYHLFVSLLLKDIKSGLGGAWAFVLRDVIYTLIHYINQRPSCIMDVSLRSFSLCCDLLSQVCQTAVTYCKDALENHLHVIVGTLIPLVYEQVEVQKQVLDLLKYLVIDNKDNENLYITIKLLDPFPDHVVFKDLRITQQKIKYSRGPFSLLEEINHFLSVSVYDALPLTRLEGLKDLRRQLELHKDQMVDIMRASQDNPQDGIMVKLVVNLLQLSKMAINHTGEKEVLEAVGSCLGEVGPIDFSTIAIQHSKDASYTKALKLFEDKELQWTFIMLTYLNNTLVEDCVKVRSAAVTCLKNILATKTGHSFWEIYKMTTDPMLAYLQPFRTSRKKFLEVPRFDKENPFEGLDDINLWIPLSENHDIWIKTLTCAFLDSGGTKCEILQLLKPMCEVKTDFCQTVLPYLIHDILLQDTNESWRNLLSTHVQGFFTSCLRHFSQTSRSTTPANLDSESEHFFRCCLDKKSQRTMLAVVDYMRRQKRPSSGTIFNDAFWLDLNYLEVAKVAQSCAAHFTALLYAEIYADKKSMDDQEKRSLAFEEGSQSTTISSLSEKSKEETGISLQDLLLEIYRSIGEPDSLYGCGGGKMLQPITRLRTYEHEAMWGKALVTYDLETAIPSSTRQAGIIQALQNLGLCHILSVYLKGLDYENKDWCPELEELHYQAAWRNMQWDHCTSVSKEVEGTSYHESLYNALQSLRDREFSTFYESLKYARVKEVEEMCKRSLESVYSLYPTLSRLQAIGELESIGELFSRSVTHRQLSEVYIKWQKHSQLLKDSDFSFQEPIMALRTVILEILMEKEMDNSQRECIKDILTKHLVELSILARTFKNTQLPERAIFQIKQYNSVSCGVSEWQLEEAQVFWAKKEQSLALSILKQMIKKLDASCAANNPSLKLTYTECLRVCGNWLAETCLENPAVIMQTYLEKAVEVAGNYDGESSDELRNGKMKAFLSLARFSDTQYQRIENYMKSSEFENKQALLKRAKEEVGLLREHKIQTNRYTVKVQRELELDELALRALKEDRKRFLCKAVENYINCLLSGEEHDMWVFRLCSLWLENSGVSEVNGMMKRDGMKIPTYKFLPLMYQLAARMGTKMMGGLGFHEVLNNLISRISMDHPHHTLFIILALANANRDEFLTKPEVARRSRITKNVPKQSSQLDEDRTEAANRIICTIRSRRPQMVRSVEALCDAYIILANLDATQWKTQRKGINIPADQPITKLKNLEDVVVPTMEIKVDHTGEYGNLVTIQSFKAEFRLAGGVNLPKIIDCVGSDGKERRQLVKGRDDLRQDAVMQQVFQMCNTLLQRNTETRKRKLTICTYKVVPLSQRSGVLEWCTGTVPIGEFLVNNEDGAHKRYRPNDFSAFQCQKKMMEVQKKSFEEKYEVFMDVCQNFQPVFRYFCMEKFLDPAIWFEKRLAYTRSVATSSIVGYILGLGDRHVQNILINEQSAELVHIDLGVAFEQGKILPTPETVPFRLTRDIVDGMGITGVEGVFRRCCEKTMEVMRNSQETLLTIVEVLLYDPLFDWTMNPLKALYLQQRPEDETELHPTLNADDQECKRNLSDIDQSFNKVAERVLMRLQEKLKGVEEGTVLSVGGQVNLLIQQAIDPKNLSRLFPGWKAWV
ATM and TRAF6 interaction, sequence (Q9Y4K3 whole entry): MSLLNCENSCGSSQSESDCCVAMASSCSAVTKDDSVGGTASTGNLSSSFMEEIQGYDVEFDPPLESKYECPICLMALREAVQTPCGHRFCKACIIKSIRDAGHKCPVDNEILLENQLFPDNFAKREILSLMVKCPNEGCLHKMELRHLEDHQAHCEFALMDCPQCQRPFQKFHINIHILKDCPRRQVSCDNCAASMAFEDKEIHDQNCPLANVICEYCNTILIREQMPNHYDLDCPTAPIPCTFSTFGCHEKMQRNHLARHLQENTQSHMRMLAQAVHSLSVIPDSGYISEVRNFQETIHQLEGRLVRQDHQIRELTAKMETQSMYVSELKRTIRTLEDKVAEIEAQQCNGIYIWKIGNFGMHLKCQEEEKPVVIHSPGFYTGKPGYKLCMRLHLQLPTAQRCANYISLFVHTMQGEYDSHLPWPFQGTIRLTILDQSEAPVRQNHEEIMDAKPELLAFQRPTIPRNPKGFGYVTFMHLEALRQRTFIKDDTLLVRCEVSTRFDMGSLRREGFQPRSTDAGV
Test [17] deals with ATM and HIF1α interaction (Homo sapiens, UniProt Q13315+Q16665). Description: p-ATM-mediated IP and immunoblot in PSC27 cells. It is filed as cell-based. The note with it: BLEO and/or rutin.
ATM and HIF1α interaction, sequence (Q13315 2-3056 limits assumed): as the sequence (Q13315 2-3056 limits assumed) above
ATM and HIF1α interaction, sequence (Q16665 whole entry): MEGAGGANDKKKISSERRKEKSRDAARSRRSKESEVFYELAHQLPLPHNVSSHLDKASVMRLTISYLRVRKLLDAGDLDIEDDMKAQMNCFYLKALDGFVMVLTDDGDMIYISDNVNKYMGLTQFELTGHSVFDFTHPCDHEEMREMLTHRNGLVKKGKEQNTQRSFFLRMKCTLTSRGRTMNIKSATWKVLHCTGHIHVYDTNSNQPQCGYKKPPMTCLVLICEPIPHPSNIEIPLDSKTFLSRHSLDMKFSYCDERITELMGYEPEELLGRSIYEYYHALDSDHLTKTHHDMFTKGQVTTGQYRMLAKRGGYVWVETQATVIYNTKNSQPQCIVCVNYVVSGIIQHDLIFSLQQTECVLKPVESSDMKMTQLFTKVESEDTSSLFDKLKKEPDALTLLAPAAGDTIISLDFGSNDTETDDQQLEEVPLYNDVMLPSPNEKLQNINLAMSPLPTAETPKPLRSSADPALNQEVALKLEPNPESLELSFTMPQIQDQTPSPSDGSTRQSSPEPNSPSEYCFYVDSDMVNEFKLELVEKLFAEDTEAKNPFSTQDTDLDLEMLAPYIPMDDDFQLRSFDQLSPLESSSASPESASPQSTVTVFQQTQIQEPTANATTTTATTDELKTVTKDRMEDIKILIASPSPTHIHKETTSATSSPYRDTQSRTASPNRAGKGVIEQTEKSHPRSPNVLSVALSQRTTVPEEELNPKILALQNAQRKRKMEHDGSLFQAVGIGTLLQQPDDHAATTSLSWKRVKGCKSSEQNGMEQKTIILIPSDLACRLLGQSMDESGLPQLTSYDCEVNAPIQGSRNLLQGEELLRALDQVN
The subject of test [18] is p65 and p50 (NF-κB). Nature of the test: Immunoblot after separation of the nucleoplasm, PSC27 cells. The format is cell-based, human.
Procedure: Immunoblot analysis of cell lysates of PSC27 cells upon BELO and/or rutin intervention after separation of the nucleoplasm. C, cytoplasmic; N; Nuclear. Lamin A/C, loading control for nuclear proteins. GAPDH, loading control for cytoplasmic proteins. Cell lysate-derived proteins were separated using NuPAGE 4-12% Bis-Tris gel and transferred to nitrocellulose membranes (Life Technologies). The blot was blocked with 5% skimmed milk for 1 h at room temperature, incubated overnight at 4° C. with the desired primary antibody at the manufacturer's protocol concentration, and then incubated with horseradish peroxidase-conjugated secondary antibody (Santa Cruz) for 1 h. Blot signal detection was carried out with enhanced chemiluminescence (ECL) detection reagent (Millipore) according to the manufacturer's protocol, and ImageQuant LAS 400 Phospho-Imager (GE Healthcare) was used. As a standard protein marker, PageRuler Plus Prestained Protein Ladder (no. 26619) from Thermo Fisher Scientific was used by the inventors.
For test [19], the system named is PSC27 cells. Nature of the test: ROS production in PSC27 cells with DCFH-DA. The format is cell-based, human. An excerpt: FIG. 23. Measurement of Reactive Oxygen Species (ROS) production in PSC27 cells under various conditions with DCFH-DA, a fluorescent reagent. Left, representative images, scale bar, […]; Right, comparative statistics.
For test [20], the system named is PC3, DU145, M12 and LNCaP. Nature of the test: Proliferation, migration and invasion of prostate cancer cells cultured with PSC27 conditioned media. The format is cell-based, human. The following applies: rutin final concentration 100 μM.
In test [21] the test system is PC3, DU145, M12 and LNCaP. Description: Drug resistance of prostate cancer cells cultured with PSC27 conditioned media. It is filed as cell-based, human. The note with it: rutin final concentration 100 μM.
Test [22] has as its system PC3 cells. Nature of the test: Dose-response curves of PC3 cells with PSC27-BLEO CM exposed to MIT. It is filed as cell-based, human. The following applies: PC3 exposed to MIT at 0.1-1.0 μM; rutin 100 μM.
Test [23] has as its system PC3/PSC27 tumors. Nature of the test: Xenografts of PC3 with PSC27 sublines (naive, senescent, pretreated). It is filed as in vivo. The note with it: PC3 + PSC27^SEN recombinants, SCID mice, 8 weeks, p<0.0001.
Where [24] appears, read: FIG. 14, senescence induction and rutin intervention, P<0.01, Fold change>4.
Setting [25] is: senescent PSC27 upon rutin, 2-fold change of log 2-based, p<0.01.

`O=C1c2c(O)ccc(O)c2C(=O)c2c(NCCNCCO)ccc(NCCNCCO)c21` [MIT, mitoxantrone]: the “tumor sizes in contrast to placebo” value in [1] (8-week regimen, MIT on 1st day of 3rd, 5th, 7th week) is “remarkably reduced tumor sizes”. Further, in [1] (PC3/PSC27 tumors, MIT alone, end of 8th week), the tumor volume decrease was determined as 35.5%. Besides, the “effect on PC3-only tumors” value in test [2] was “caused shrinkage”. Further, the “expression of typical SASP factors in tumors” value in [3] (IL6, IL8, AREG, IL1a, MMP1, MMP3, ANGPTL4, SPINK1) is “significant upregulation”. Besides, in test [3] (p16^INK4a, p21^CIP1 and SA-β-GAL), the “typical senescence markers in tumors” value is reported as “induction”. The “tissue senescence by SA-β-GAL staining” value in [4] is given as “considerable tissue senescence”. For the same molecule, in test [5], the “DNA damage (DDR) in cancer cells” value is listed as “substantial” and the “apoptosis / cell death in cancer cells” value is recorded as “substantial”. Also, in test [6], the “circulating AREG level” value was “elevated levels”. Besides, the “circulating EREG level” value in [7] was “elevated levels”.
As to `CC[C@]1(O)C[C@H]2CN(CCc3c([nH]c4ccccc34)[C@@](C(=O)OC)(c3cc4c(cc3OC)N(C=O)[C@H]3[C@@](O)(C(=O)OC)[C@H](OC(C)=O)[C@]5(CC)C=CCN6CC[C@]43[C@@H]65)C2)C1` [VIN, vincristine], the “outcome of combination of the chemotherapeutic drug with rutin and rapamycin” value in [8] is on record as “did not exhibit the characteristics of effective drug combination therapy”.
Consider `COc1cccc2c1C(=O)c1c(O)c3c(c(O)c1C2=O)C[C@@](O)(C(=O)CO)C[C@@H]3O[C@H]1C[C@H](N)[C@H](O)[C@H](C)O1` [doxorubicin], for which the “outcome of combination of the chemotherapeutic drug with rutin and rapamycin” value in test [8] is “largely reproduced the results of preclinical experiments performed with PCa system”.
For `CO[C@H]1C[C@@H]2CC[C@@H](C)[C@@](O)(O2)C(=O)C(=O)N2CCCC[C@H]2C(=O)O[C@H]([C@H](C)C[C@@H]2CC[C@@H](O)[C@H](OC)C2)CC(=O)[C@H](C)/C=C(\C)[C@@H](O)[C@@H](OC)C(=O)[C@H](C)C[C@H](C)/C=C/C=C/C=C/1C` [rapamycin], the “effect on PC3-only tumors” value in test [2] was “did not show a remarkable effect”.
As for `C[C@@H]1O[C@@H](OC[C@H]2O[C@@H](Oc3c(-c4ccc(O)c(O)c4)oc4cc(O)cc(O)c4c3=O)[C@H](O)[C@@H](O)[C@@H]2O)[C@H](O)[C@H](O)[C@H]1O` [rutin], the SA-β-Gal staining entry in [9] was “remained largely unchanged”. In addition, the BrdU incorporation entry in test [10] was “remained largely unchanged”. In [11], the “expression of interleukin 8 (IL8), a hallmark SASP factor (senomorphic potential)” value is recorded as “prominent efficacy in downregulating”. In addition, in [12], the “concentration with the most optimal effects in restraining expression of typical SASP components” value was 100 µM. In test [13] (setting [24]), this molecule yielded a genes down-regulated of 3733 genes and a genes up-regulated of 886 genes. Further, the “transcriptome-wide expression of SASP factors” value in test [13] (RNA-seq, senescent PSC27 cells treated with rutin) is on record as “most of the SASP factors were indeed downregulated”. The “GSEA SASP signature” value in test [13] (senescent PSC27 cells treated with rutin) was “specifically and significantly inhibited SASP”. In addition, in [13] (setting [25]), the transcripts downregulated was 3733 transcripts, the transcripts significantly modified was 4619 transcripts and the transcripts upregulated turned out to be 886 transcripts. The “ATM activation / phosphorylation” value in [14] is “remained largely unaffected”. Besides, in [14] (in the presence of rutin), the “TAK1 phosphorylation, p38MAPK activation, PI3K/Akt/mTOR activation and IL8 upregulation after BLEO” value is “generally diminished”. Further, in [15], the “TAK1 activation and TRAF6-TAK1 interaction” value is “considerably restrained”. Moreover, the “interaction of ATM and TRAF6” value in [16] is listed as “significantly weakens”. In addition, the “mutual interaction between ATM and HIF1α” value in test [17] is given as “subject to interruption”. The “cytoplasm-to-nucleus translocation of p65 and p50 upon cellular senescence” value in test [18] is reported as “largely abolished”. Besides, the “ROS generation by senescent cells” value in test [19] (PSC27, BLEO-induced senescent) is “significantly suppressed”. For the same molecule, in [19] (PSC27, proliferating), the “production of ROS in proliferating cells” value is reported as “did not change”. Further, the “gain-of-functions (proliferation, migration, invasion; malignancy) conferred by CM from senescent PSC27 cells” value in test [20] is on record as “almost completely disappeared”. For the same molecule, the “counteraction of the increase in cancer cell viability upon senescent stromal cell-derived CM” value in [21] is recorded as “about 80%”. Further, the “cancer resistance conferred by the CM of senescent stromal cells” value in test [22] was “remarkably downregulate cancer resistance”. Moreover, the “tumor volumes after pretreatment of PSC27^SEN cells in vitro” value in [23] was “considerably reduced tumor volumes”. The “effect on PC3-only tumors” value in test [2] is given as “did not show a remarkable effect”. Moreover, the “tissue senescence by SA-β-GAL staining” value in test [4] is “neither promote nor suppress senescence”.
For `CC[C@]1(O)C[C@H]2CN(CCc3c([nH]c4ccccc34)[C@@](C(=O)OC)(c3cc4c(cc3OC)N(C=O)[C@H]3[C@@](O)(C(=O)OC)[C@H](OC(C)=O)[C@]5(CC)C=CCN6CC[C@]43[C@@H]65)C2)C1` [vincristine], in [1] (PC3 and PC3/PSC27 tumors), the “benefit of the chemotherapeutic drug from combined use of rutin and/or rapamycin” value was “did not show such benefits”.
With bleomycin [reference compound], the SA-β-Gal staining result in test [9] is listed as “elevated positivity”. Besides, the BrdU incorporation result in [10] is “reduced BrdU incorporation”. In addition, in [14], the “ATM activation / phosphorylation” value is listed as “markedly activated”. Further, the “ROS levels in contrast to normal counterparts” value in [19] (PSC27 cells after BLEO genotoxicity) is recorded as “remarkably elevated ROS levels”.

The values above are taken from patent US20240358732A1, “Use of Rutin and Rapamycin in the Preparation of Synergistic Chemotherapy Drugs for Tumor Inhibition” (priority 2023, published 2024).
